≈ marks a conversion by molar mass, not a printed value. Read-outs that look alike come from different tables or passages of the source.
Key:
[1] = test system: MSV-induced tumor; assay: Effect on the evolution of an MSV-induced tumor in newborn NMRI mice; format: in vivo
Description: Effect of compounds of the general formula I on the evolution
of an MSV-induced tumor in newborn NMRI mice

[2] = test system: HIV-1; assay: Effect on multiplication of HIV-1 in tissue cultures of MT-4 cells (suppression of cytopathogenic effect); format: cell-based
Description: (§1) Effect of compounds of the general formula I on multi-
(§2) plication of HIV-1 in tissue cultures of MT-4 cells
^a Dose, suppressing by 50% the cytopatogenic effect of HIV1 in MT4

[3] = Cytotoxicity: dose decreasing the viability of MT4 cells to one half; format: cell-based; conditions: human, mt-4 cells
Description: as §1, §2
^b dose, decreasing the viability of MT4 cells to one half;

[4] = test system: retroviruses, such as HIV; conditions: cited from earlier work
[5] = test system: HIV; conditions: cited from earlier work
[6] = test system: simian immunodefficiency virus (SIV); conditions: experimental animals; cited from earlier work
[7] = test system: Moloney sarcoma virus; conditions: experimental animals; cited from earlier work
[8] = test system: murine leukemia virus; conditions: experimental animals; cited from earlier work
[9] = Human immunodeficiency virus 1, MT4, HIV-1, MT-4 cells, read-out: ED50 (dose, suppressing by 50% the cytopatogenic effect of HIV1 in MT4 cells)
[10] = read-out: CD50 (dose, decreasing the viability of MT4 cells to one half)

| SMILES | Median day of tumor formation ([1]; dose 1 mg/kg/day) | Median survival time ([1]; dose 1 mg/kg/day) [days] | Median day of tumor formation ([1]; dose 5 mg/kg/day) | Median survival time ([1]; dose 5 mg/kg/day) [days] | Median day of tumor formation ([1]; dose 20 mg/kg/day) | SI (ratio CD50/ED50) ([2]; HIV-1, MT-4 cells) | effect on HIV in tissue cultures [5] | also measured |
| --- | --- | --- | --- | --- | --- | --- | --- | --- |
| Nc1ncnc2c1ncn2CC(CF)OCP(=O)(O)O (racemic) [Compound 1, 9-(RS)-(3-fluoro-2-phosphonylmethoxypropyl)-adenine] | 5.8 | 10.9 | 7.5 | 14.4 | > 13 | > 90 |  | EC50 [2, 9]: 11.2 µg/mL (≈ 36.7 µM); CC50 [3, 10]: > 1000 µg/mL |
| Nc1nc2c(ncn2CC(CF)OCP(=O)(O)O)c(=O)[nH]1 (racemic) [Compound 2] | 5.2 | 11.7 | 8.5 | 12.5 | > 13 | 50 |  | Median survival time ([1]; dose 20 mg/kg/day): 10 days; EC50 [2, 9]: 4.7 µg/mL (≈ 14.6 µM); CC50 [3, 10]: 233 µg/mL (≈ 725 µM) |
| Cc1cn([C@H]2C=C[C@@H](CO)O2)c(=O)[nH]c1=O [2',3'-dideoxy-2',3'-didehydrothymidine] |  |  |  |  |  |  |  | efficiency in the treatment of experimental animals [4]: efficient in the treatment of experimental animals |
| Nc1ccn([C@H]2CC[C@@H](CO)O2)c(=O)n1 [2',3'-dideoxycytidine] |  |  |  |  |  |  |  | efficiency in the treatment of experimental animals [4]: efficient in the treatment of experimental animals |
| Cc1cc(-c2ccc(/N=N/c3ccc4c(S(=O)(=O)O)cc(S(=O)(=O)O)c(N)c4c3O)c(C)c2)ccc1/N=N/c1ccc2c(S(=O)(=O)O)cc(S(=O)(=O)O)c(N)c2c1O [Evans Blue] |  |  |  |  |  |  | significant effects in tissue cultures |  |
| Nc1ncnc2c1ncn2CCOCP(=O)(O)O [IX, reference compound] | 6.1 | 14.7 | 10.1 | 17.2 | > 13 | 7.2 | have proven its effect | effect on simian immunodefficiency virus (SIV) [6]: have proven its effect; effect on Moloney sarcoma virus [7]: have proven its effect; EC50 ([2]; Human immunodeficiency virus 1, MT4, read-out: ED50 (dose, suppressing by 50% the cytopatogenic effect of HIV1 in MT4 cells)): 2 µg/mL (≈ 7.32 µM); effect on murine leukemia virus [8]: have proven its effect; CC50 [3]: 14.2 µg/mL (≈ 52 µM) |
| O=C(O)C1=CC(=C(c2ccc(O)c(C(=O)O)c2)c2ccc(O)c(C(=O)O)c2)C=CC1=O [aurine-tricarboxylic acid] |  |  |  |  |  |  | significant effects in tissue cultures |  |

— patent US5733896A, “N-(3-fluoro-2-phosphonylmethoxypropyl) derivatives of purine and pyrimidine heterocyclic bases, their preparation and use” (priority 1990, dated 1998)
